Experiments:
C. elegans [1] = assay: Lifespan of C. elegans treated with Mianserin; format: in vivo; conditions: for increase in lifespan: 50 μM Mianserin vs water
Protocol: FIG. 4B is a graph depicting lifespan curves of wt and unc-44(e362) animals treated with water or 50 μM Mianserin. […] (Y-axis) as a function of time [days] (X-axis). Dotted lines represent wt (N2) animals and bold lines represent unc-44(e362) mutants. Black: solvent control; red: Mianserin 50 μM. […] Asterisks indicate P values (**; P<0.01, ***P<0.001).
FIG. 4C is a graph depicting mean increase in lifespan [%] (Y-axis) as a function of Mianserin concentration [μM] (X-axis). Solid red line represents unc-44(e362) animals. Dotted red line represents the parallel control experiment of Mianserin-treated wt (N2) animals. Error bars show standard deviation for experimental replicates.

C. elegans [2] = assay: Survival after paraquat (oxidative stress) in Mianserin-treated C. elegans; format: in vivo; conditions: three independent alleles (e362, e1197, e1260) of ANK3/unc-44; 50 μM Mianserin from day 1 adult, paraquat five days later
Protocol: FIG. 4A are graphs depicting Mianserin-induced protection from oxidative stress requires ANK3/unc-44, the C. elegans homolog of mammalian ANK3. Wild-type (wt) N2 strain (dotted lines) or ANK3/unc-44 mutants (bold lines), at day 1 adult stage, were treated with water (black) or 50 μM Mianserin (red), followed by increasing concentrations of paraquat five days later. Survival of animals was determined 24 h after paraquat addition and plotted in [%] (Y-axis) as a function of paraquat concentration [mM] (X-axis). Parallel wt (N2) control experiments (dotted lines) are shown for each graph. […] All error bars show S.E.M for 3 to 4 independent experiments.

PLA2G6 = target: T1, PLA2G6 (Homo sapiens, UniProt O60733); conditions: existing drug targeting top longevity biomarker; cited from earlier work
T1 sequence (O60733 1-806): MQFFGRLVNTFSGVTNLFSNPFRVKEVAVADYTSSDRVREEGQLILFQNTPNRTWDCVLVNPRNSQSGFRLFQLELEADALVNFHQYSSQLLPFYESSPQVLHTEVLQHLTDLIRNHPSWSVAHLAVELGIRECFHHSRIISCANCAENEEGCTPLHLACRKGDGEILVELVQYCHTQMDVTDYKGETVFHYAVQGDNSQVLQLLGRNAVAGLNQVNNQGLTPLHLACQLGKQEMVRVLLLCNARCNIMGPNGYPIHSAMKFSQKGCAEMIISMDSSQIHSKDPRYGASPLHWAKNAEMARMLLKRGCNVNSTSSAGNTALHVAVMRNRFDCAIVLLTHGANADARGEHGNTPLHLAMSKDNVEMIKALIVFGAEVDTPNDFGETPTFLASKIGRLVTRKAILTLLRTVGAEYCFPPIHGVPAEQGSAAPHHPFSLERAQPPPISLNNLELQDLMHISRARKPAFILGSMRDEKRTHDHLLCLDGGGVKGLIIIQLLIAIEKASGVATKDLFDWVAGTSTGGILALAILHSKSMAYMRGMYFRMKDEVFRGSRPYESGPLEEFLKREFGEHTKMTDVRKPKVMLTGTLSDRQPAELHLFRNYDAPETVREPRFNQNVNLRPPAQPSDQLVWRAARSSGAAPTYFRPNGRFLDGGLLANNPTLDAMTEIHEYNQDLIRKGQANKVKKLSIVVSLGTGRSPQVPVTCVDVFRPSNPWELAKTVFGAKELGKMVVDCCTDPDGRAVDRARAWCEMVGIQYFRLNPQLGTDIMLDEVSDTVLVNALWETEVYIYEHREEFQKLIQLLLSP

POLH = conditions: Table 4 universal biomarkers; longevity direction of change I; cited from earlier work
ANK3 = conditions: amygdala of a mouse model of mood disorders and stress; previous work; cited from earlier work
NAV1 = conditions: Table 4 universal biomarkers; longevity direction of change D; cited from earlier work
worms = conditions: direct prior experimental evidence; cited from earlier work
ABCC1 = ABCC1 (Homo sapiens, UniProt P33527); conditions: existing drug targeting top longevity biomarker; cited from earlier work
ABCC1, sequence (P33527 whole entry): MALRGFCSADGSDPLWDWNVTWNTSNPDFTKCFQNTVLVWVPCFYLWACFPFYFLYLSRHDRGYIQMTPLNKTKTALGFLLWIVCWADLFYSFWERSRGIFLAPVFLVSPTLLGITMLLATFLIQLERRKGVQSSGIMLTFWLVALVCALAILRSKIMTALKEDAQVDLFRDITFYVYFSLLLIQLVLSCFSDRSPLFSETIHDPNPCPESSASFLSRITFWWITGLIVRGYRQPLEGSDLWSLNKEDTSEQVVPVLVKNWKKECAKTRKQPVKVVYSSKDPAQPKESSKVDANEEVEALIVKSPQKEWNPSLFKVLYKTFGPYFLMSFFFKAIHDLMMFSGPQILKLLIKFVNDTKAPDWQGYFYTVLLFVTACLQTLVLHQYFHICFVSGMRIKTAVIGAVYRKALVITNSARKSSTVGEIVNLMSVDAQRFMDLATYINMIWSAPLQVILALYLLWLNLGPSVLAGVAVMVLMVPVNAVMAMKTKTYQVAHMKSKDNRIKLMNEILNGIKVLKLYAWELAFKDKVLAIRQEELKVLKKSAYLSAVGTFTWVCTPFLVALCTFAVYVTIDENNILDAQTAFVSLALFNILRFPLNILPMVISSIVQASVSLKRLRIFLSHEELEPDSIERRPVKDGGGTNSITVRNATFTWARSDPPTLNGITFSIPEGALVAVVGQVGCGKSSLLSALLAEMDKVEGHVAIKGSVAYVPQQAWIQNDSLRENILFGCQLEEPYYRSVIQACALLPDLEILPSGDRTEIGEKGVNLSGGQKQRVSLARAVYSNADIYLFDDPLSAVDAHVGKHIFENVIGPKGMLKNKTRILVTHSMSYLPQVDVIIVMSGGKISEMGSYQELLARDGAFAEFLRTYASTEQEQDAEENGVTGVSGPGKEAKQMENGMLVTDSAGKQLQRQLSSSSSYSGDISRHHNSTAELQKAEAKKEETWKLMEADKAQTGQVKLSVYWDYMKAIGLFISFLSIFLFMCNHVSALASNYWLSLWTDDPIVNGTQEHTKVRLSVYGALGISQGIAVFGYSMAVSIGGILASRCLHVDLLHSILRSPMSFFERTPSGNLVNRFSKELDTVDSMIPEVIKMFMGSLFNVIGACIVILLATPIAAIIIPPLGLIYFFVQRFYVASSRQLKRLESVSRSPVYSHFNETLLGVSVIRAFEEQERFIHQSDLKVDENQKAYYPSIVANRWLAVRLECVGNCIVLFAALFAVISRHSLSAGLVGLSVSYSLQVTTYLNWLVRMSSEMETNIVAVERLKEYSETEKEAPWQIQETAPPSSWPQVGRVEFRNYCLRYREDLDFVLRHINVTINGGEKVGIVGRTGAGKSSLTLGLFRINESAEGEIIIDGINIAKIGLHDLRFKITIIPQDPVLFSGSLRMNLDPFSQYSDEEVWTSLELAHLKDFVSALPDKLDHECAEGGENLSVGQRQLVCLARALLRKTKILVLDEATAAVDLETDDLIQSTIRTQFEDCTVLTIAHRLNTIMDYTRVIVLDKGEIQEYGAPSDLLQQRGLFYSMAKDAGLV

MME = conditions: Table 5 biomarkers in males; longevity direction of change D; cited from earlier work

## CN1CCN2c3ccccc3Cc3ccccc3C2C1 (racemic) [Mianserin, (±)-2-methyl-1,2,3,4,10,14b-hexahydrodibenzo[c,f]pyrazino[1,2-a]azepine]
C. elegans [1]; ANK3/unc-44(e362) mutants, any Mianserin concentration
  lifespan extension as a function of Mianserin concentration: No lifespan extension
C. elegans [1]; unc-44(e362) mutant animals
  increase in lifespan: −9%
C. elegans [1]; wild-type (N2) animals
  increase in lifespan: +40%
C. elegans [2]
  resistance to oxidative stress (survival 24 h after paraquat): failed to increase resistance to oxidative stress

## CCN(CC)CCCC(C)Nc1c2ccc(Cl)cc2nc2ccc(OC)cc12 (racemic) [quinacrine, (RS)—N′-(6-Chloro-2-methoxy-acridin-9-yl)-N,N-diethylpentane-1,4-diamine]
PLA2G6
  effect on PLA2G6: inhibiting

## NC(=O)N1c2ccccc2C=Cc2ccccc21 [Carbamazepine]
POLH
  POLH modulated by drug in the same direction as longevity: Carbamazepine

## CC/C=C\C/C=C\C/C=C\C/C=C\C/C=C\C/C=C\CCC(=O)O [DHA]
ANK3
  ANK3 expression: decreased

## COc1ccc(C(CN(C)C)C2(O)CCCCC2)cc1 (centres unmarked) [Venlafaxine]
NAV1
  NAV1 modulated by drug in the same direction as longevity: Venlafaxine

## C[C@]12CC[C@@H]3c4ccc(O)cc4CC[C@H]3[C@@H]1CC[C@@H]2O [estradiol, (8R,9S,13S,14S,17S)-13-methyl-6,7,8,9,11,12,14,15,16,17-decahydrocyclopenta[a]phenanthrene-3,17-diol]
worms
  lifespan: extending lifespan

## O=C1C(CC[S+]([O-])c2ccccc2)C(=O)N(c2ccccc2)N1c1ccccc1 (centres unmarked) [sulfinpyrazone, 1,2-diphenyl-4-[2-(phenylsulfinyl)ethyl]pyrazolidine-3,5-dione]
ABCC1
  effect on ABCC1: inhibiting

## sacubitril/valsartan
MME
  MME modulated by drug in the same direction as longevity: sacubitril/
